Reference: ChEMBL document CHEMBL5620406, “Synthesis and biological evaluation of novel pyrazole amides as potent mitochondrial complex I inhibitors” (Eur J Med Chem, 2023)
Activity calls are given as the source filed them. No cut-off for these calls is given here.

Experiments:
[1] = target: Cytochrome P450 2D6 (Homo sapiens, UniProt P10635); test: Inhibition of CYP2D6 in human liver microsomes incubated for 20 mins in presence of NADPH by LC/MS/MS analysis; assay type: ADME, Microsome
[2] = Inhibition of mitochondrial complex I (unknown origin) incubated for 15 mins by microplate reader analysis; set-up: species or system Homo sapiens
[3] = test system: HCT-116; test: Antiproliferative activity against human HCT-116 cells assessed as inhibition of cell growth incubated for 96 hrs by MTT assay; assay type: functional, cell-based; conditions: HCT-116, 96 h
[4] = test system: KG-1; test: Antiproliferative activity against human KG-1 cells assessed as inhibition of cell growth incubated for 96 hrs by MTT assay; assay type: functional, cell-based; conditions: KG-1, 96 h
[5] = test system: HCT-116; test: Induction of mitochondrial dysfunction in human HCT-116 cells assessed as attenuation of maximum oxygen consumption rate incubated for 24 hrs by Seahorse XFe24 analyzer; assay type: functional, cell-based; conditions: dose 2-10 nM
[6] = test system: HCT-116; test: Induction of mitochondrial dysfunction in human HCT-116 cells assessed as attenuation of oxygen consumption rate at 10 nM incubated for 24 hrs by Seahorse XFe24 analyzer; assay type: functional, cell-based
[7] = test system: HCT-116; test: Induction of mitochondrial dysfunction in human HCT-116 cells assessed as increase in extracellular acidification rate at 2 to 10 nM incubated for 24 hrs by Seahorse XFe24 analyzer; assay type: functional, cell-based; conditions: dose 2-10 nM
[8] = test system: HCT-116; test: Induction of mitochondrial dysfunction in human HCT-116 cells assessed as inhibition of OXPHOS at 2 to 10 nM incubated for 24 hrs by Seahorse XFe24 analyzer; assay type: functional, cell-based; conditions: dose 2-10 nM
[9] = test system: KG-1; test: Induction of ROS generation in human KG-1 cells measured for 30 mins by DCFDA-staining based flow cytometry analysis; assay type: functional, cell-based; conditions: dose <= 0.5 nM
[10] = test system: KG-1; test: Induction of ROS generation in human KG-1 cells at 1 nM measured for 30 mins by DCFDA-staining based flow cytometry analysis; assay type: functional, cell-based
[11] = test system: KG-1; test: Antitumor activity against human KG-1 cells xenografted in NOD-SCID mouse assessed as tumor growth inhibition at 5 mg/kg, ip qd administered 5 consecutive days per week for 24 days; assay type: functional; conditions: KG-1, 576 h, time 24 day, read-out: TGI
[12] = test system: HCT-116; test: Induction of mitochondrial membrane potential depolarization in human HCT-116 cells at 2 nM incubated for 24 hrs by JC-1 staining based flow cytometry analysis; assay type: functional
[13] = Acute toxicity in BALB/c mouse assessed as decrease in body weight at 68 mg/kg, ip measured for 6 days; assay type: organism-based; conditions: in vivo, 144 h, time 6 day
[14] = Acute toxicity in BALB/c mouse assessed as effect on ALT level at 68 mg/kg, ip measured on day 14; assay type: organism-based; conditions: in vivo, 336 h, time 14 day
[15] = Acute toxicity in BALB/c mouse assessed as effect on AST level at 68 mg/kg, ip measured on day 14; assay type: organism-based; conditions: in vivo, 336 h, time 14 day
[16] = Acute toxicity in BALB/c mouse assessed as effect on BILT level at 68 mg/kg, ip measured on day 14; assay type: organism-based; conditions: in vivo, 336 h, time 14 day
[17] = Acute toxicity in BALB/c mouse assessed as effect on GLU level at 68 mg/kg, ip measured on day 14; assay type: organism-based; conditions: in vivo, 336 h, time 14 day
[18] = Acute toxicity in BALB/c mouse assessed as effect on WBC level at 68 mg/kg, ip measured on day 14; assay type: organism-based; conditions: in vivo, 336 h, time 14 day
[19] = Acute toxicity in BALB/c mouse assessed as effect on RBC level at 68 mg/kg, ip measured on day 14; assay type: organism-based, Erythrocyte; conditions: in vivo, 336 h, time 14 day
[20] = Acute toxicity in BALB/c mouse assessed as effect on PLT level at 68 mg/kg, ip measured on day 14; assay type: organism-based; conditions: in vivo, 336 h, time 14 day
[21] = Acute toxicity in BALB/c mouse assessed as heart damage at 40 to 68 mg/kg, ip measured on day 14 by H and E staining based analysis; assay type: organism-based; conditions: in vivo, 336 h, dose 40-68 mg/kg, time 14 day
[22] = Acute toxicity in BALB/c mouse assessed as spleen damage at 40 to 68 mg/kg, ip measured on day 14 by H and E staining based analysis; assay type: organism-based; conditions: in vivo, 336 h, dose 40-68 mg/kg, time 14 day
[23] = Acute toxicity in BALB/c mouse assessed as animal death at 116 mg/kg, ip measured on day 14; assay type: organism-based; conditions: in vivo, time 14 day, read-out: Activity
[24] = Toxicity in NOD-SCID mouse xenografted with human KG-1 cells assessed as change in body weight at 5 mg/kg, ip qd administered 5 consecutive days per week for 24 days; assay type: organism-based; conditions: in vivo, 576 h, time 24 day
[25] = Toxicity in NOD-SCID mouse xenografted with human KG-1 cells assessed as effect on ALB level at 5 mg/kg, ip qd administered 5 consecutive days per week for 24 days; assay type: organism-based; conditions: in vivo, 576 h, time 24 day
[26] = Toxicity in NOD-SCID mouse xenografted with human KG-1 cells assessed as effect on ALP level at 5 mg/kg, ip qd administered 5 consecutive days per week for 24 days; assay type: organism-based; conditions: in vivo, 576 h, time 24 day
[27] = Toxicity in NOD-SCID mouse xenografted with human KG-1 cells assessed as effect on BILT level at 5 mg/kg, ip qd administered 5 consecutive days per week for 24 days; assay type: organism-based; conditions: in vivo, 576 h, time 24 day
[28] = Toxicity in NOD-SCID mouse xenografted with human KG-1 cells assessed as effect on GLB level at 5 mg/kg, ip qd administered 5 consecutive days per week for 24 days; assay type: organism-based; conditions: in vivo, 576 h, time 24 day
[29] = Toxicity in NOD-SCID mouse xenografted with human KG-1 cells assessed as effect on GLU level at 5 mg/kg, ip qd administered 5 consecutive days per week for 24 days; assay type: organism-based; conditions: in vivo, 576 h, time 24 day
[30] = Toxicity in NOD-SCID mouse xenografted with human KG-1 cells assessed as effect on HDL level at 5 mg/kg, ip qd administered 5 consecutive days per week for 24 days; assay type: organism-based; conditions: in vivo, 576 h, time 24 day
[31] = Toxicity in NOD-SCID mouse xenografted with human KG-1 cells assessed as effect on LDL level at 5 mg/kg, ip qd administered 5 consecutive days per week for 24 days; assay type: organism-based; conditions: in vivo, 576 h, time 24 day
[32] = Toxicity in NOD-SCID mouse xenografted with human KG-1 cells assessed as effect on WBC count at 5 mg/kg, ip qd administered 5 consecutive days per week for 24 days; assay type: organism-based; conditions: in vivo, 576 h, time 24 day
[33] = Toxicity in NOD-SCID mouse xenografted with human KG-1 cells assessed as effect on PLT level at 5 mg/kg, ip qd administered 5 consecutive days per week for 24 days; assay type: organism-based; conditions: in vivo, 576 h, time 24 day
[34] = Toxicity in NOD-SCID mouse xenografted with human KG-1 cells assessed as effect on liver damage at 5 mg/kg, ip qd administered 5 consecutive days per week for 24 days by H and E staining based analysis; assay type: organism-based; conditions: in vivo, 576 h, time 24 day
[35] = Toxicity in NOD-SCID mouse xenografted with human KG-1 cells assessed as effect on lung damage at 5 mg/kg, ip qd administered 5 consecutive days per week for 24 days by H and E staining based analysis; assay type: organism-based; conditions: in vivo, 576 h, time 24 day
[36] = Toxicity in NOD-SCID mouse xenografted with human KG-1 cells assessed as effect on kidney damage at 5 mg/kg, ip qd administered 5 consecutive days per week for 24 days by H and E staining based analysis; assay type: organism-based; conditions: in vivo, 576 h, time 24 day
[37] = Apparent permeability across apical to basolateral side in human Caco-2 cells incubated for 120 mins by LC-MS/MS analysis; assay type: ADME, cell-based
[38] = Apparent permeability across basolateral side to apical in human Caco-2 cells incubated for 120 mins by LC-MS/MS analysis; assay type: ADME, cell-based

Chain of Cytochrome P450 2D6 (P10635 whole entry): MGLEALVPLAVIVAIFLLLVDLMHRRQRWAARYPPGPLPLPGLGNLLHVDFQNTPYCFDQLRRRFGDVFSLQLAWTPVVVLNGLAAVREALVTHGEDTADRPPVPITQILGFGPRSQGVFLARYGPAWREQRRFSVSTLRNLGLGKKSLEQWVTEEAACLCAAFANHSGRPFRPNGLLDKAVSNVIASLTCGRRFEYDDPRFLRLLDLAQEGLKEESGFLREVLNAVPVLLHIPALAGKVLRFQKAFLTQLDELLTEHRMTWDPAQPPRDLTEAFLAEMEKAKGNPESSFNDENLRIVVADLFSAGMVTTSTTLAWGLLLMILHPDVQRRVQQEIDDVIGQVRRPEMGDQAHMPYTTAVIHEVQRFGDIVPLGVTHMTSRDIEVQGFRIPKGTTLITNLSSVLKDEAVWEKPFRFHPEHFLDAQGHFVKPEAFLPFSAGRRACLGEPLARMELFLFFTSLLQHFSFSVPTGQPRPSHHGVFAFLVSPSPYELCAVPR

Row | Structure (SMILES) | IC50 [1] [nM] | IC50 [2] [nM] | IC50 [3] [nM] | IC50 [4] [nM] | Activity [5] | Activity [6] | Activity [7] | Activity [8] | Activity [9] | Activity [10] | inhibition in vivo at 5 mg/kg [11] [%] | Activity [12] [%] | Activity [13] | Activity [14] | Activity [15] | Activity [16] | Activity [17] | Activity [18] | Activity [19] | Activity [20] | further results
1 | Cc1cc(C(=O)Nc2ccc(C(F)(F)F)cc2)nn1Cc1cccc(N2CCN(C(=O)C3CC3)CC2)c1 | > 10000 | 830 | 0.52 | 3.9 | Dose-Dependent Effect | Active | Active | Active | Dose-Dependent Effect | Active | 65.9 | 26.5 | Non-Toxic | Non-Toxic | Non-Toxic | Non-Toxic | Non-Toxic | Non-Toxic | Non-Toxic | Non-Toxic | Activity [21]: Non-Toxic; Activity [22]: Non-Toxic; mortality at 336 h [23]: 33.3%; Activity [24]: Non-Toxic; Activity [25]: Non-Toxic; Activity [26]: Non-Toxic; Activity [27]: Non-Toxic; Activity [28]: Non-Toxic; Activity [29]: Non-Toxic; Activity [30]: Non-Toxic; Activity [31]: Non-Toxic; Activity [32]: Non-Toxic; Activity [33]: Non-Toxic; Activity [34]: Non-Toxic; Activity [35]: Non-Toxic; Activity [36]: Non-Toxic; Papp A→B at 2 h [37]: 5.83 ×10⁻⁶ cm/s; Papp B→A at 2 h [38]: 3.08 ×10⁻⁶ cm/s
2 | Cc1cc(C(=O)Nc2ccc(OC(F)(F)F)cc2)nn1Cc1cccc(N2CCN(C(=O)C3CC3)CC2)c1 | > 10000 | 1140 | 1.02 | 5.81 | Dose-Dependent Effect | Active | Active | Active | Dose-Dependent Effect | Active | 61.5 | 34.3 | Non-Toxic | Non-Toxic | Non-Toxic | Non-Toxic | Non-Toxic | Non-Toxic | Non-Toxic | Non-Toxic | Activity [21]: Non-Toxic; Activity [22]: Non-Toxic; mortality at 336 h [23]: 33.3%; Activity [24]: Non-Toxic; Activity [25]: Non-Toxic; Activity [26]: Non-Toxic; Activity [27]: Non-Toxic; Activity [28]: Non-Toxic; Activity [29]: Non-Toxic; Activity [30]: Non-Toxic; Activity [31]: Non-Toxic; Activity [32]: Non-Toxic; Activity [33]: Non-Toxic; Activity [34]: Non-Toxic; Activity [35]: Non-Toxic; Activity [36]: Non-Toxic; Papp A→B at 2 h [37]: 5.74 ×10⁻⁶ cm/s; Papp B→A at 2 h [38]: 3.25 ×10⁻⁶ cm/s
